# Reference: publication PMC11406361, “Several orphan solute carriers functionally identified as organic cation transporters: Substrates specificity compared with known cation transporters” (The Journal of Biological Chemistry, 2024)
# How the values were obtained:
# [1] = molecular target: T1, SLC35E2A (Homo sapiens, UniProt P0CK97)
# [2] = molecular target: T2, SLC35G3 (Homo sapiens, UniProt Q8N808); assay: Uptake ratio screen, SLC35G3-overexpressing HEK293 over empty vector cells; type: cell-based; parameters: by amplifying the entire gene-of-interest within the HEK293 genome via a long-range PCR; conditions: 2.5 μM substrate, 2 min, HEK293
# T2 sequence (Q8N808 whole entry): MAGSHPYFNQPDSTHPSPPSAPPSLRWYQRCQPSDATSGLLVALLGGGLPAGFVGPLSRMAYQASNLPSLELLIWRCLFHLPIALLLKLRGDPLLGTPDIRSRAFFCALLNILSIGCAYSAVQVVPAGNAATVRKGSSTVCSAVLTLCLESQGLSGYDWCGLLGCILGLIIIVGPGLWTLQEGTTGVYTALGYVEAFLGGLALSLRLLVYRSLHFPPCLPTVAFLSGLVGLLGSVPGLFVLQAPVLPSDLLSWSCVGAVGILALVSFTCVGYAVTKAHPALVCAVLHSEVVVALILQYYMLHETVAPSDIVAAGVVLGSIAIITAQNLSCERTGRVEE
# [3] = molecular target: T1, SLC35E2A; assay: Uptake ratio screen, SLC35E2A-overexpressing HEK293 over empty vector cells; type: cell-based; parameters: by amplifying the entire gene-of-interest within the HEK293 genome via a long-range PCR; conditions: 2.5 μM, 2 min
# Protocol: (§1) Typically discussed substrates of the proton organic-cation antiporter ([14]) are highlighted in dark green in Figure 1.
# (§2) In preparation for transport experiments, 24-well plates were pre-coated with poly-D-lysine (Sigma-Aldrich) and 300,000 cells were plated per well and incubated for 48 h. Firstly, the 24-well plate was placed on a heating plate at 37 °C, and the cells were washed with 37 °C HBSS^+ buffer (Hank’s balanced salt solution supplemented with 10 mM Hepes and adjusted to pH 7.4; Thermo Fisher Scientific). The substance-of-interest, which was diluted in 37 °C HBSS^+ to a desired concentration, was added to the cells for exactly 2 min. […] The uptake was stopped with ice-cold HBSS^+, and the 24-well plate was removed from the heating plate. The cells were washed twice with the cold HBSS^+ before they were lysed for 15 min with 80% (v/v) acetonitrile containing the respective internal standard for mass spectrometry. For variations in seeded cell numbers between the cell lines, several wells were lysed in RIPA buffer and used for total protein quantification using a bicinchoninic assay ([74]) and bovine serum albumin as calibration.
# The intracellular drug concentrations after transport experiments were analyzed by high-performance liquid chromatography coupled to tandem mass spectrometry analysis. The HPLC consisted of a Shimadzu Nexera HPLC System with a SIL-30AC autosampler, a LC-30AD pump, a CTO-20AC column oven, and a CBM-20A controller (Shimadzu). The reverse-phase chromatography of compounds was accomplished with a Brownlee SPP RP-Amide column with 4.6 × 100 mm inner dimensions, a particle size of 2.7 μm, and a preceding Phenomenex C-18 guard column. […] After separation, the detection of substances was performed with an API 4000 tandem mass spectrometer (AB SCIEX, https://sciex.com/support/software-support/software-downloads), followed by quantification of results with the Analyst software (AB SCIEX, version 1.6.2). […]
# (§3) Transport-mediated net uptake was determined as fold-increase of transporter-overexpressing cells over empty vector–transfected control cells.
# [4] = molecular target: T3, SLC22A15 (Homo sapiens, UniProt Q8IZD6); assay: Uptake ratio screen, SLC22A15-overexpressing HEK293 over empty vector cells; type: cell-based; conditions: 2.5 μM (nicotine 10 μM), 2 min
# T3 construct: by amplifying the entire gene-of-interest within the HEK293 genome via a long-range PCR
# T3 sequence (Q8IZD6 whole entry): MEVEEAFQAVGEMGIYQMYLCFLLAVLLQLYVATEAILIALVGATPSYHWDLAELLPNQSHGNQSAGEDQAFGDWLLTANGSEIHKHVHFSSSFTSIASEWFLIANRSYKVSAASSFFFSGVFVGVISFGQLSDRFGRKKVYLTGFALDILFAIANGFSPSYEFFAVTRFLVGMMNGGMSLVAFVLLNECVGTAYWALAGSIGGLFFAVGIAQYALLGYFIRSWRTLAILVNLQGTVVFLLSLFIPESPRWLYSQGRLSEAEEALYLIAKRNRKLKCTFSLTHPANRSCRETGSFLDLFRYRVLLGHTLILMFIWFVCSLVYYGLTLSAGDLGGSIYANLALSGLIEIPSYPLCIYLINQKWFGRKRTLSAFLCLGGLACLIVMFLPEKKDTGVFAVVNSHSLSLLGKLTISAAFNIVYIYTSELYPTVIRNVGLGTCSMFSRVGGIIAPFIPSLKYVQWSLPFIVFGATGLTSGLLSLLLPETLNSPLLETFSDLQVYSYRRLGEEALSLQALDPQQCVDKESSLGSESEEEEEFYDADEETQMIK
# Protocol: as §1, §2
# The intracellular drug concentrations after transport experiments were analyzed by high-performance liquid chromatography coupled to tandem mass spectrometry analysis. The HPLC consisted of a Shimadzu Nexera HPLC System with a SIL-30AC autosampler, a LC-30AD pump, a CTO-20AC column oven, and a CBM-20A controller (Shimadzu). The reverse-phase chromatography of compounds was accomplished with a Brownlee SPP RP-Amide column with 4.6 × 100 mm inner dimensions, a particle size of 2.7 μm, and a preceding Phenomenex C-18 guard column. The mobile phase was composed of an organic additive with acetonitrile:methanol 6:1 (v/v) in total concentrations between 3% and 50% (v/v) and 0.1% (v/v) formic acid in the aqueous component of the eluent. During separation, the column oven was held at 40 °C and the mobile phase was maintained at a flow rate of 300 or 400 μl/min. After separation, the detection of substances was performed with an API 4000 tandem mass spectrometer (AB SCIEX, https://sciex.com/support/software-support/software-downloads), followed by quantification of results with the Analyst software (AB SCIEX, version 1.6.2). The composition of chromatographic conditions, as well as detailed mass spectrometric detection parameters, are listed in Table S5.
# as §3
# [5] = molecular target: T2, SLC35G3
# [6] = molecular target: T4, SLC35F2 (Homo sapiens, UniProt Q8IXU6)
# T4 sequence (Q8IXU6 1-374): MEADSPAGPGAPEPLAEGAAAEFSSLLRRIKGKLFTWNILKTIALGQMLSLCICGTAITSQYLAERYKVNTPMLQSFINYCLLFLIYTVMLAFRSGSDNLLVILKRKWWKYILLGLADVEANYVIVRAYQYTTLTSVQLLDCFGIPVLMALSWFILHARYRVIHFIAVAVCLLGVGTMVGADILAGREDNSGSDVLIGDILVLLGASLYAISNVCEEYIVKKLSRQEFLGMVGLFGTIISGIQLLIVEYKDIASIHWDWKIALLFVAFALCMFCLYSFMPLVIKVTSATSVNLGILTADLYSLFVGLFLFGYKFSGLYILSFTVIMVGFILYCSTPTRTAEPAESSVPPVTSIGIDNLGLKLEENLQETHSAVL
# [7] = molecular target: SLC38A10 (Homo sapiens, UniProt Q9HBR0)
# Sequence of SLC38A10 (Q9HBR0 whole entry): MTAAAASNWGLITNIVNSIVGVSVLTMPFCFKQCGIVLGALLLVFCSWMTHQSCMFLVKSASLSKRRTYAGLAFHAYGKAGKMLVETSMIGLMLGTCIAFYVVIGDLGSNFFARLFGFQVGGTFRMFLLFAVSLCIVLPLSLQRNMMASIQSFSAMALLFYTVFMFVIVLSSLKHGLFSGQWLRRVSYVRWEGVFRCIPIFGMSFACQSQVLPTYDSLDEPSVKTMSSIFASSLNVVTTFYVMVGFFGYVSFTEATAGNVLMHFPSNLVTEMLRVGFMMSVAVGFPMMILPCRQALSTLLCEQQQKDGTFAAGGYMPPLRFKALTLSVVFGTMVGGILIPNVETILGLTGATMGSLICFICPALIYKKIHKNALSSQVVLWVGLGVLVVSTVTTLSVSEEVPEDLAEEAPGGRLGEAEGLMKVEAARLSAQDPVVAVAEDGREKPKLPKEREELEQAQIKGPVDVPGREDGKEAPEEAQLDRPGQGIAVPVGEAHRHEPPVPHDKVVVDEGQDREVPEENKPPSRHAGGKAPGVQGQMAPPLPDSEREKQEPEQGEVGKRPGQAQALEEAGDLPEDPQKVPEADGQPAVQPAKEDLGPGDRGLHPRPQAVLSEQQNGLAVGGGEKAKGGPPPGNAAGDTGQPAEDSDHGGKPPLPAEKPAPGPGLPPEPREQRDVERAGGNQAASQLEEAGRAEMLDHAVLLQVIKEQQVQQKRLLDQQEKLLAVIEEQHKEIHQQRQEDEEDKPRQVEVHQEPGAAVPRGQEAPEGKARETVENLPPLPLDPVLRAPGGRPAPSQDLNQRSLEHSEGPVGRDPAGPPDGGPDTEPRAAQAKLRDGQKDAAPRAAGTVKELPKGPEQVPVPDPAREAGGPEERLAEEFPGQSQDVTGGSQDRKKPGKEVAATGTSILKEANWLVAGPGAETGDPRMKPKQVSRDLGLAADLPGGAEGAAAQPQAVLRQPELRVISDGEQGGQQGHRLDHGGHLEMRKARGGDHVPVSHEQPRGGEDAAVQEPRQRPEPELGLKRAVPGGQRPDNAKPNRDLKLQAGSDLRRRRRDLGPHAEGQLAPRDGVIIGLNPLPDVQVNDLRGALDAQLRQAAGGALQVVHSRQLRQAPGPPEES
# T1 sequence (P0CK97 whole entry): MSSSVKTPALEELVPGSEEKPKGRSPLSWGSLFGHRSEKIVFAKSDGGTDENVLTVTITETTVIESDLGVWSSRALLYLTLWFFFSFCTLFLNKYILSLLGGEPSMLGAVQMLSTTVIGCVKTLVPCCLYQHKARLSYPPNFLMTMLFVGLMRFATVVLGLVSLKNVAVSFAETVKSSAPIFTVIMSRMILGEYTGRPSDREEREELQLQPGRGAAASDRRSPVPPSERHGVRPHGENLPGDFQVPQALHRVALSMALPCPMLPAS
SMILES,Clint (±SEM) [1],"Uptake data for SLC35G3, mean value (fold-increase over empty vector control) [2]",Uptake by SLC35E2A (in words) [3],Uptake by SLC22A15 (in words) [4],Clint (±SEM) [5],"Vmax (±SEM) ([6]; SLC35F2, HEK293, net uptake over empty vector cells)",Clint (±SEM) ([6]; human),"Km ([6]; read-out: KM (±SEM), SLC35F2, HEK293, net uptake over empty vector cells)",Clint (±SEM) [7]
c1cnc2cc3c(cc2n1)[C@@H]1CNC[C@H]3C1 [Varenicline],1.79 (±1.06) μl × mg protein^-1 × min^-1,1.60,relatively high activity,significantly increased the uptake,,,,,
Clc1cccc(Cl)c1N=C1NCCN1 [Clonidine],,1.54,,significantly increased the uptake,4.85 (±3.17) μl × mg protein^-1 × min^-1,304 (±57.7) pmol × mg protein^-1 × min^-1,2.06 (±1.62) μl × mg protein^-1 × min^-1,147 µM,2.64 (±3.0) μl × mg protein^-1 × min^-1
